Laboratory results published in ChEMBL document CHEMBL1159229, “In vitro anticomplementary activity of constituents from Morinda morindoides” (J Nat Prod, 1995).

Experiments:
Homo sapiens [1] = organism: Homo sapiens; experiment: Activation of human plasma alternative complement system assessed as hemolysis of non-sensitized rabbit erythrocytes at 1000 uM; format: cell-free
Cavia porcellus [2] = organism: Cavia porcellus; experiment: Activation of guinea pig classical complement system assessed as hemolysis of sensitized sheep erythrocytes at 1000 uM
Cavia porcellus [3] = organism: Cavia porcellus; experiment: Inhibition of guinea pig classical complement system assessed as hemolysis of sensitized sheep erythrocytes at 1000 uM
Homo sapiens [4] = organism: Homo sapiens; experiment: Inhibition of human plasma alternative complement system assessed as hemolysis of non-sensitized rabbit erythrocytes at 1000 uM; format: cell-free
Cavia porcellus [5] = organism: Cavia porcellus; experiment: Inhibition of guinea pig classical complement system assessed as hemolysis of sensitized sheep erythrocytes

Q: `COc1cc(-c2cc(=O)c3c(O)cc(O)cc3o2)ccc1O` was tested. Which Activity (Homo sapiens [1]) did it give?
A: The Activity was 59%.

Q: And the Activity (Cavia porcellus [2])?
A: Its Activity is 9%.

Q: `O=c1c(O)c(-c2ccc(O)c(O)c2)oc2cc(O)cc(O)c12` was tested. Which inhibition (Cavia porcellus [3]) did it give?
A: Its inhibition is 52.5%.

Q: What about the inhibition (Homo sapiens [4]) of the same compound?
A: Its inhibition is 24%.

Q: And the Activity (Cavia porcellus [5])?
A: Its Activity is “Dose-dependent effect”.

Q: How did the Activity (Homo sapiens [1]) turn out when `O=c1cc(-c2ccc(O)cc2)oc2cc(O[C@@H]3O[C@H](CO)[C@@H](O)[C@H](O)[C@H]3O)cc(O)c12` was run?
A: Its Activity is 2.4%.

Q: What about the Activity (Cavia porcellus [2]) of the same compound?
A: The Activity was 2.34%.

Q: Which results are given for `O=c1cc(-c2ccc(O)c(O)c2)oc2cc(O[C@@H]3O[C@H](CO)[C@@H](O)[C@H](O)[C@H]3O)cc(O)c12`?
A: inhibition (Cavia porcellus [3]): 25.2%; inhibition (Homo sapiens [4]): 2%

Q: With `COc1cc(O)c2c(=O)c(O)c(-c3ccc(OC)c(O)c3)oc2c1` as the compound, how does the Activity (Homo sapiens [1]) read?
A: Its Activity is 13.7%.

Q: What about the inhibition (Cavia porcellus [3]) of the same compound?
A: The inhibition was 24.3%.

Q: Which results are given for `C[C@@H]1O[C@@H](Oc2c(-c3ccc(O)cc3)oc3cc(O)cc(O)c3c2=O)[C@H](O)[C@H](O)[C@H]1O`?
A: inhibition (Cavia porcellus [3]): 5.6%; inhibition (Homo sapiens [4]): 6.2%

Q: `COc1cc(-c2cc(=O)c3c(O)cc(O[C@@H]4O[C@H](CO)[C@@H](O)[C@H](O)[C@H]4O[C@@H]4O[C@@H](C)[C@H](O)[C@@H](O)[C@H]4O)cc3o2)ccc1O` was tested. Which Activity (Homo sapiens [1]) did it give?
A: Its Activity is 11.2%.

Q: And the Activity (Cavia porcellus [2])?
A: Its Activity is 4.6%.

Q: For `C[C@@H]1O[C@@H](Oc2c(-c3ccc(O)c(O)c3)oc3cc(O)cc(O)c3c2=O)[C@H](O)[C@H](O)[C@H]1O`, which inhibition (Cavia porcellus [3]) is on record?
A: The inhibition was 56.2%.

Q: What about the inhibition (Homo sapiens [4]) of the same compound?
A: The inhibition was 13.5%.

Q: What about the Activity (Cavia porcellus [5]) of the same compound?
A: Its Activity is “Dose-dependent effect”.

Q: Which Activity (Homo sapiens [1]) does the source give for `C[C@@H]1O[C@@H](OC[C@H]2O[C@@H](Oc3c(-c4ccc(O)cc4)oc4cc(O)cc(O)c4c3=O)[C@H](O)[C@@H](O)[C@@H]2O)[C@H](O)[C@H](O)[C@H]1O` here?
A: The Activity was 18.4%.

Q: And the inhibition (Cavia porcellus [3])?
A: The inhibition was 19.2%.

Q: What does the source list for `C[C@@H]1O[C@@H](OC[C@H]2O[C@@H](Oc3c(-c4ccc(O)c(O)c4)oc4cc(O)cc(O)c4c3=O)[C@H](O)[C@@H](O)[C@@H]2O)[C@H](O)[C@H](O)[C@H]1O`?
A: inhibition (Cavia porcellus [3]): 54.4%; inhibition (Homo sapiens [4]): 18%; Activity (Cavia porcellus [5]): Dose-dependent effect

Q: With `O=C(/C=C/c1ccc(O)c(O)c1)O[C@H](Cc1ccc(O)c(O)c1)C(=O)O` as the compound, how does the inhibition (Cavia porcellus [3]) read?
A: Its inhibition is 93.3%.

Q: And the inhibition (Homo sapiens [4])?
A: Its inhibition is 67.8%.

Q: And the Activity (Cavia porcellus [5])?
A: The Activity was “Dose-dependent effect”.
